Each molecule was assayed against T1R1/T1R3 receptor (Felis catus, UniProt E3UMS2) (assay: cell-based). Conditions: not given.
Type: cell-based
Description: HEK293 cells that stably express T1R3 and inducibly express T1R1 were exposed to transmembrane compounds alone or in combination with one or more amino acids and/or one or more nucleotides to activate the umami receptor. Activation of the T1R1/T1R3 receptor was detected by a change in intracellular calcium levels using a calcium sensitive fluorescent dye. Cells that express T1R3 but not T1R1 were used as a control. A FLIPR® Tetra or a FlexStation® 3 was used for data capture.
In each experiment, serial dilutions of up to 10 mM of the transmembrane compound were added to the T1R1/T1R3-expressing cells.
With `CCC(CC)NC(=O)/C=C/c1ccc(OC)cc1` [(E)-3-(4-methoxyphenyl)-N-(pentan-3-yl)acrylamide] the EC50 was 80 ± 10 µM.

Same assay, conditions: + Alanine (20 nM); Table 17
For `O=C(Nc1ccccc1Br)N[C@@H]1c2ccccc2C[C@@H]1O` (stereo in doubt) [1-(2-bromophenyl)-3-((1R,2S)-2-hydroxy-2,3-dihydro-1H-inden-1-yl)urea], the “Thres +Alanine” value was 3 mM. `O=C(CN1C(=O)C(=O)N(Cc2ccccc2)C1=O)c1ccccc1` [1-benzyl-3-(2-oxo-2-phenylethyl)imidazolidine-2,4,5-trione] was tested, and the “Thres +Alanine” value was 1 mM. With `CCC(CC)NC(=O)/C=C/c1ccc(OC)cc1` [(E)-3-(4-methoxyphenyl)-N-(pentan-3-yl)acrylamide] the “Thres +Alanine” value was 0.148 mM.

Same assay, conditions: + Alanine; Table 17
For `O=C(Nc1ccccc1Br)N[C@@H]1c2ccccc2C[C@@H]1O` (stereo in doubt) [1-(2-bromophenyl)-3-((1R,2S)-2-hydroxy-2,3-dihydro-1H-inden-1-yl)urea], the “Max resp % of IMP + Alanine” value was 33.0 % of IMP and the “Max resp ΔF/F +Alanine” value was 0.3. In the case of `O=C(CN1C(=O)C(=O)N(Cc2ccccc2)C1=O)c1ccccc1` [1-benzyl-3-(2-oxo-2-phenylethyl)imidazolidine-2,4,5-trione], the “Max resp % of IMP + Alanine” value is reported as 127.6 % of IMP and the “Max resp ΔF/F +Alanine” value is reported as 1.3. With `CCC(CC)NC(=O)/C=C/c1ccc(OC)cc1` [(E)-3-(4-methoxyphenyl)-N-(pentan-3-yl)acrylamide] the “Max resp % of IMP + Alanine” value was 64.1 % of IMP and the “Max resp ΔF/F +Alanine” value was 0.7.

Same assay, conditions: + Alanine; Table 17; read-out: EC50 + Alanine
With `O=C(Nc1ccccc1Br)N[C@@H]1c2ccccc2C[C@@H]1O` (stereo in doubt) [1-(2-bromophenyl)-3-((1R,2S)-2-hydroxy-2,3-dihydro-1H-inden-1-yl)urea] the EC50 was > 3000 µM.

Same assay, conditions: + IMP (0.2 mM); Table 17
With `O=C(Nc1ccccc1Br)N[C@@H]1c2ccccc2C[C@@H]1O` (stereo in doubt) [1-(2-bromophenyl)-3-((1R,2S)-2-hydroxy-2,3-dihydro-1H-inden-1-yl)urea] the “Max resp % of ALa + IMP” value was 44.9 % of ALa and the “Thres + IMP” value was 3 mM. In the case of `O=C(CN1C(=O)C(=O)N(Cc2ccccc2)C1=O)c1ccccc1` [1-benzyl-3-(2-oxo-2-phenylethyl)imidazolidine-2,4,5-trione], the “Max resp % of ALa + IMP” value is reported as 135.7 % of ALa and the “Thres + IMP” value is reported as 0.08 mM. In the case of `CCC(CC)NC(=O)/C=C/c1ccc(OC)cc1` [(E)-3-(4-methoxyphenyl)-N-(pentan-3-yl)acrylamide], the “Max resp % of ALa + IMP” value is reported as 171.7 % of ALa and the “Thres + IMP” value is reported as 0.0375 mM.

Same assay, conditions: +Alanine (20 mM); Table 18
`O=C(Nc1ccccc1Br)N[C@@H]1c2ccccc2C[C@@H]1O` (stereo in doubt) [1-(2-bromophenyl)-3-((1R,2S)-2-hydroxy-2,3-dihydro-1H-inden-1-yl)urea] was tested, and the “Max resp ΔF/F +Alanine” value was 0.3 and the “Thres +Alanine” value was 3 mM. With `O=C(CN1C(=O)C(=O)N(Cc2ccccc2)C1=O)c1ccccc1` [1-benzyl-3-(2-oxo-2-phenylethyl)imidazolidine-2,4,5-trione] the “Max resp ΔF/F +Alanine” value was 1.3 and the “Thres +Alanine” value was 1 mM. In the case of `CCC(CC)NC(=O)/C=C/c1ccc(OC)cc1` [(E)-3-(4-methoxyphenyl)-N-(pentan-3-yl)acrylamide], the “Max resp ΔF/F +Alanine” value is reported as 0.7 and the “Thres +Alanine” value is reported as 0.148 mM.

Same assay, conditions: +Alanine (20 mM); Table 18; read-out: EC50 +Alanine
`O=C(Nc1ccccc1Br)N[C@@H]1c2ccccc2C[C@@H]1O` (stereo in doubt) [1-(2-bromophenyl)-3-((1R,2S)-2-hydroxy-2,3-dihydro-1H-inden-1-yl)urea] was tested, and the EC50 was > 3000 µM. Molecule `CCC(CC)NC(=O)/C=C/c1ccc(OC)cc1` [(E)-3-(4-methoxyphenyl)-N-(pentan-3-yl)acrylamide] has an EC50 of 590 µM.

Same assay, conditions: +IMP (0.2 mM); Table 18
With `O=C(Nc1ccccc1Br)N[C@@H]1c2ccccc2C[C@@H]1O` (stereo in doubt) [1-(2-bromophenyl)-3-((1R,2S)-2-hydroxy-2,3-dihydro-1H-inden-1-yl)urea] the “Max resp % of Ala +IMP” value was 44.9 % of Ala and the “Max resp ΔF/F +IMP” value was 0.378. `O=C(CN1C(=O)C(=O)N(Cc2ccccc2)C1=O)c1ccccc1` [1-benzyl-3-(2-oxo-2-phenylethyl)imidazolidine-2,4,5-trione] was tested, and the “Max resp % of Ala +IMP” value was 135.7 % of Ala and the “Max resp ΔF/F +IMP” value was 1.140. `CCC(CC)NC(=O)/C=C/c1ccc(OC)cc1` [(E)-3-(4-methoxyphenyl)-N-(pentan-3-yl)acrylamide] was tested, and the “Max resp % of Ala +IMP” value was 171.7 % of Ala and the “Max resp ΔF/F +IMP” value was 1.443.

Same assay, conditions: EC50 + Alanine + IMP, + Alanine (20 mM) + IMP (0.2 mM); Table 17
`CCC(CC)NC(=O)/C=C/c1ccc(OC)cc1` [(E)-3-(4-methoxyphenyl)-N-(pentan-3-yl)acrylamide] was tested, and the EC50 was 80 µM.

Same assay, conditions: EC50 + IMP, + IMP (0.2 mM); Table 17
`O=C(Nc1ccccc1Br)N[C@@H]1c2ccccc2C[C@@H]1O` (stereo in doubt) [1-(2-bromophenyl)-3-((1R,2S)-2-hydroxy-2,3-dihydro-1H-inden-1-yl)urea] was tested, and the EC50 was > 3000 µM. For `CCC(CC)NC(=O)/C=C/c1ccc(OC)cc1` [(E)-3-(4-methoxyphenyl)-N-(pentan-3-yl)acrylamide], the EC50 was 150 µM.

Same assay, conditions: EC50 +Alanine + IMP, +Alanine (20 mM) + IMP (0.2 mM); Table 18
For `O=C(Nc1ccccc1Br)N[C@@H]1c2ccccc2C[C@@H]1O` (stereo in doubt) [1-(2-bromophenyl)-3-((1R,2S)-2-hydroxy-2,3-dihydro-1H-inden-1-yl)urea], the EC50 was > 3000 µM. `CCC(CC)NC(=O)/C=C/c1ccc(OC)cc1` [(E)-3-(4-methoxyphenyl)-N-(pentan-3-yl)acrylamide] gave an EC50 of 80 µM.

Same assay, conditions: EC50 +IMP, +IMP (0.2 mM); Table 18
`O=C(Nc1ccccc1Br)N[C@@H]1c2ccccc2C[C@@H]1O` (stereo in doubt) [1-(2-bromophenyl)-3-((1R,2S)-2-hydroxy-2,3-dihydro-1H-inden-1-yl)urea] was tested, and the EC50 was > 3000 µM. In the case of `CCC(CC)NC(=O)/C=C/c1ccc(OC)cc1` [(E)-3-(4-methoxyphenyl)-N-(pentan-3-yl)acrylamide], the EC50 is reported as 150 µM.

Same assay, conditions: EC50 - with IMP (0.2 mM), with 0.2 mM IMP
`CCC(CC)NC(=O)/C=C/c1ccc(OC)cc1` [(E)-3-(4-methoxyphenyl)-N-(pentan-3-yl)acrylamide] was tested, and the EC50 was 150 ± 20 µM.

Same assay, conditions: alone in buffer; read-out: EC50 - alone
Molecule `CCC(CC)NC(=O)/C=C/c1ccc(OC)cc1` [(E)-3-(4-methoxyphenyl)-N-(pentan-3-yl)acrylamide] has an EC50 of 450 ± 10 µM.

Same assay, conditions: compound alone in buffer; Table 17; read-out: EC50 + buffer (alone)
In the case of `O=C(Nc1ccccc1Br)N[C@@H]1c2ccccc2C[C@@H]1O` (stereo in doubt) [1-(2-bromophenyl)-3-((1R,2S)-2-hydroxy-2,3-dihydro-1H-inden-1-yl)urea], the EC50 is reported as > 3000 µM. In the case of `CCC(CC)NC(=O)/C=C/c1ccc(OC)cc1` [(E)-3-(4-methoxyphenyl)-N-(pentan-3-yl)acrylamide], the EC50 is reported as 450 µM.

Same assay, conditions: compound alone in buffer; Table 18; read-out: EC50 +buffer (alone)
With `O=C(Nc1ccccc1Br)N[C@@H]1c2ccccc2C[C@@H]1O` (stereo in doubt) [1-(2-bromophenyl)-3-((1R,2S)-2-hydroxy-2,3-dihydro-1H-inden-1-yl)urea] the EC50 was > 3000 µM. In the case of `CCC(CC)NC(=O)/C=C/c1ccc(OC)cc1` [(E)-3-(4-methoxyphenyl)-N-(pentan-3-yl)acrylamide], the EC50 is reported as 450 µM.

Same assay, conditions: read-out: EC50 + Alanine
`CCC(CC)NC(=O)/C=C/c1ccc(OC)cc1` [(E)-3-(4-methoxyphenyl)-N-(pentan-3-yl)acrylamide] showed an EC50 of 590 µM.
